We go through one compound from patent US20090055945A1, “Method for Producing Nuclear-Transplanted Egg” (priority 2005, published 2009).

Test [1] deals with oocytes injected with mature sperm (ICSI). Nature of the test: Paternal genome DNA methylation, mature sperm injection (ICSI). It counts as cell-based, mouse. The following applies: 500 nM TSA, 20 hours. As for the experimental part:
The oocytes injected with the nuclear domains of round spermatids obtained by ROSI were cultured for 20 hours in the presence of 20 ng/ml of demecolcine in a medium containing 10 μM 5-azacytidine (5-aza) or 500 nM TSA as an anti-methylation agent. Similarly, injection of mature sperms was carried out (ICSI (intracytoplasmic sperm injection)). Specifically, heads of sperms were separated from the tails by applying pulses to the head-tail junctions by means of a piezo-driven pipette (PrimeTech), and injected into oocytes. The oocytes were not subjected to activation in this case. […]
For quantitative analysis of pronuclear DNA methylation levels, fluorescence images were subjected to densitometric analysis using the program Image-J from the National Institute of Health (http://rsb.info.nih.gov/ij/). For each pronucleus, the relative intensity of methylation of the paternal genome was calculated as a percentage of the fluorescence intensity of the maternal genome. In Table 3, data with (b) and without (a) anti-methylation agent were statistically analyzed by Scheffe tests for multiple mean comparisons using the statistical program SPSS version 12.0 (SPSS Inc.). […]

The subject of test [2] is oocytes injected with nuclear domains of round spermatids. Nature of the test: Birth rate after round spermatid injection (ROSI). In kind it is in vivo, mouse. As for the experimental part:
The effect of the TSA treatment according to the present invention on round spermatid injection (ROSI) was examined. ROSI was carried out according to the method as described in Non-patent Document 13.
Briefly, human choriogonadotropin (hCG) was first administered to female B6D2F1 mice (Japan SLC). Oocytes were collected after 16 hours and placed in a CZB medium. The oocytes were then transferred to a KSOM medium and incubated at 37° C. under 5% CO2.
The oocytes were activated by incubation in Ca^2+-free CZB medium supplemented with 5 mM strontium chloride (SrCl2) for 20 minutes. After 40 to 80 minutes, the oocytes were injected with the nuclear domains of round spermatids (characterized by diameters of about 10 μm and centrally located distinct nucleoli; see Non-patent Document 14) collected from a male C57BL/6 mouse (Japan SLC).
The oocytes injected with nuclei were transferred to KSOM medium containing 5 nM TSA, and further transferred to KSOM medium without TSA 10 hours after the initiation of activation.
Embryos at the 2-cell stage were implanted into oviducts of pseudopregnant mice (surrogate mothers, day 0.5) on the day after the spermatid injection. Fetuses were obtained by cesarean section 19 days after the embryo implantation. The ratio of the number of born fetuses to the number of implanted embryos (birth rate) was determined.

Test [3] deals with oocytes into which nuclei from ES cells (E14) were transferred. Nature of the test: Expanded blastocyst formation, ES cells as donor cells. Conditions: ES cell donor nuclei; 50 nM TSA for 20 hours; FIG. 8. In kind it is cell-based, mouse. As to the method: A procedure similar to that described in Example 1 was carried out using fibroblasts or embryonic stem cells (ES cells) as donor cells in place of cumulus cells. Fibroblasts were obtained by culturing a fragment of mouse tail (Non-patent Document 11). E14 cells were used as ES cells (Non-patent Document 12).
Oocytes into which nuclei from the donor cells were transferred were treated with TSA for 20 hours, and cultured in KSOM medium without TSA until 96 hours after the initiation of activation. Then, development into expanded blastocysts was observed and the blastocyst formation rate was determined. 30 or more embryos were examined in each of the experimental groups of the respective cells.

Consider `CC(/C=C/C(=O)NO)=C\[C@@H](C)C(=O)c1ccc(N(C)C)cc1` [TSA, trichostatin A], for which the “Ratio of methylation level of paternal genome to maternal genome (%)” value in test [1] was 8.2^b %. Further, in test [2] (TSA 5 nM), the “increase in birth rate vs control without TSA” value is recorded as “about 4 fold”. The “Birth rate (%)” value in test [2] (TSA 5 nM until 10 hours after initiation of activation) was 26.3%. This compound also had a Birth number in test [2] (TSA 5 nM until 10 hours after initiation of activation, 38 implanted embryos) of 10. The “blastocyst development rate compared with the case without TSA” value in test [3] was “higher”.
